Data: PubChem BioAssay (NCI)
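1) Cells in 96-well plates. 2) Compound, 48 h, 5 concentrations. 3) Linear interpolation between surrounding doses. 4) Unreached endpoint = highest concentration. TGI: concentration producing complete growth inhibition.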

Experiments:
Assay in all cases: DTP human tumour cell line panel, 48 h
SNB-19 CNS = test system: SNB-19 CNS
A498 renal = test system: A498 renal
EKVX NSCLC = test system: EKVX NSCLC
SK-MEL-28 melanoma = test system: SK-MEL-28 melanoma
786-0 renal = test system: 786-0 renal
SF-268 CNS = test system: SF-268 CNS
UACC-257 melanoma = test system: UACC-257 melanoma
U251 CNS = test system: U251 CNS
HCT-15 colon = test system: HCT-15 colon
NCI-H23 lung = test system: NCI-H23 lung
T-47D breast = test system: T-47D breast
UO-31 renal = test system: UO-31 renal
ACHN renal = test system: ACHN renal
RXF 393 renal = test system: RXF 393 renal
HT29 colon = test system: HT29 colon
BT-549 breast = test system: BT-549 breast
SK-OV-3 ovarian = test system: SK-OV-3 ovarian
SK-MEL-5 melanoma = test system: SK-MEL-5 melanoma
HS 578T breast = test system: HS 578T breast
SF-295 CNS = test system: SF-295 CNS
HL-60(TB) leukemia = test system: HL-60(TB) leukemia
NCI-H226 lung = test system: NCI-H226 lung
SW-620 colon = test system: SW-620 colon
OVCAR-3 ovarian = test system: OVCAR-3 ovarian
NCI-H522 lung = test system: NCI-H522 lung
HOP-92 NSCLC = test system: HOP-92 NSCLC
MALME-3M melanoma = test system: MALME-3M melanoma
DU-145 prostate = test system: DU-145 prostate
MOLT-4 leukemia = test system: MOLT-4 leukemia
MCF7 breast = test system: MCF7 breast
LOX IMVI melanoma = test system: LOX IMVI melanoma
HCT-116 colon = test system: HCT-116 colon
K-562 leukemia = test system: K-562 leukemia
KM12 colon = test system: KM12 colon
CAKI-1 renal = test system: CAKI-1 renal
MDA-N = test system: MDA-N
UACC-62 melanoma = test system: UACC-62 melanoma
COLO 205 colon = test system: COLO 205 colon
PC-3 prostate = test system: PC-3 prostate
M14 melanoma = test system: M14 melanoma
OVCAR-4 ovarian = test system: OVCAR-4 ovarian
TK-10 renal = test system: TK-10 renal
NCI-H460 lung = test system: NCI-H460 lung
A549 NSCLC = test system: A549 NSCLC
MDA-MB-231 breast = test system: MDA-MB-231 breast
OVCAR-8 ovarian = test system: OVCAR-8 ovarian
MDA-MB-435 = test system: MDA-MB-435
SN12C renal = test system: SN12C renal
IGROV1 ovarian = test system: IGROV1 ovarian
HOP-62 NSCLC = test system: HOP-62 NSCLC
NCI/ADR-RES ovarian = test system: NCI/ADR-RES ovarian
CCRF-CEM leukemia = test system: CCRF-CEM leukemia
RPMI-8226 leukemia = test system: RPMI-8226 leukemia
OVCAR-5 ovarian = test system: OVCAR-5 ovarian
HCC-2998 colon = test system: HCC-2998 colon

Compound `Clc1ccc(CSC2=NCCN2)cc1Cl` has a TGI (SNB-19 CNS) greater than 100 µM, a TGI (A498 renal) of 52.8 µM and a TGI (EKVX NSCLC) of 24.3 µM. It also gave a TGI (SK-MEL-28 melanoma) of 35.1 µM, a TGI (786-0 renal) of 23.8 µM and a TGI (SF-268 CNS) of 42.5 µM. It also gave a TGI (UACC-257 melanoma) of 24.1 µM, a TGI (U251 CNS) of 27 µM and a TGI (HCT-15 colon) of 31.9 µM. It also gave a TGI (NCI-H23 lung) of 35.8 µM, a TGI (T-47D breast) of 27 µM and a TGI (UO-31 renal) of 23.6 µM. For the same compound, the TGI (ACHN renal) was 30.9 µM, the TGI (RXF 393 renal) was 28.4 µM and the TGI (HT29 colon) was 28.4 µM. The TGI (BT-549 breast) was 40.2 µM, the TGI (SK-OV-3 ovarian) was 49.5 µM and the TGI (SK-MEL-5 melanoma) was 26 µM. It also gave a TGI (HS 578T breast) of 53.7 µM, a TGI (SF-295 CNS) greater than 100 µM and a TGI (HL-60(TB) leukemia) of 27.7 µM. It also gave a TGI (NCI-H226 lung) of 42.3 µM, a TGI (SW-620 colon) of 35.4 µM and a TGI (OVCAR-3 ovarian) of 30.3 µM. The TGI (NCI-H522 lung) was 21.5 µM, the TGI (HOP-92 NSCLC) was 13.8 µM and the TGI (MALME-3M melanoma) was 28.6 µM. It also gave a TGI (DU-145 prostate) of 29.7 µM, a TGI (MOLT-4 leukemia) of 35.9 µM and a TGI (MCF7 breast) of 25.2 µM. It also gave a TGI (LOX IMVI melanoma) of 30.1 µM, a TGI (HCT-116 colon) of 28.7 µM and a TGI (K-562 leukemia) of 88.8 µM. For the same compound, the TGI (KM12 colon) was 33.5 µM, the TGI (CAKI-1 renal) was 23.5 µM and the TGI (MDA-N) was 25 µM. It also gave a TGI (UACC-62 melanoma) of 30.5 µM, a TGI (COLO 205 colon) of 37.9 µM and a TGI (PC-3 prostate) of 23.7 µM. It also gave a TGI (M14 melanoma) of 30.6 µM, a TGI (OVCAR-4 ovarian) of 27 µM and a TGI (TK-10 renal) of 31.5 µM. For the same compound, the TGI (NCI-H460 lung) was 37.3 µM, the TGI (A549 NSCLC) was 98.9 µM and the TGI (MDA-MB-231 breast) was 29.2 µM. For the same compound, the TGI (OVCAR-8 ovarian) was 40 µM, the TGI (MDA-MB-435) was 30.5 µM and the TGI (SN12C renal) was 35.8 µM. It also gave a TGI (IGROV1 ovarian) of 39.1 µM, a TGI (HOP-62 NSCLC) of 47.1 µM and a TGI (NCI/ADR-RES ovarian) of 49.8 µM. The TGI (CCRF-CEM leukemia) was 22.3 µM, the TGI (RPMI-8226 leukemia) was 36.3 µM and the TGI (OVCAR-5 ovarian) was 53.3 µM. The TGI (HCC-2998 colon) was 30.1 µM.
